Results on 25 compounds are retold here after PubChem BioAssay (NCI).

Holding throughout (test): NCI-60 cell line screen, 48 h
For experiment [1], the system named is PC-3 prostate.
Experiment [2] concerns MDA-N.
Experiment [3] concerns EKVX NSCLC.
Experiment [4] deals with CCRF-CEM leukemia.
For experiment [5], the system named is SK-MEL-28 melanoma.
For experiment [6], the system named is OVCAR-5 ovarian.
Experiment [7] relates to 786-0 renal.
In experiment [8] the test system is K-562 leukemia.
Experiment [9] has as its system NCI-H226 lung.
Experiment [10] concerns SK-MEL-2 melanoma.
The test system of experiment [11] is SW-620 colon.
The test system of experiment [12] is SR leukemia.

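Compound exposure: 48 hours, 5 concentrations, 96-well plates. TGI: total growth inhibition.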

Turning to `Oc1cc2c3c(c1)c1cc4c(cc1c[n+]3CC2)OCO4`, the TGI is 37.3 µM in experiment [1]; greater than 100 µM in experiment [2]; greater than 76.6 µM in experiment [3]; greater than 45.8 µM in experiment [4]; greater than 41.8 µM in experiment [5]; greater than 100 µM in experiment [6]. The TGI in [7] was greater than 24.4 µM; in experiment [8], greater than 100 µM; in experiment [9], 17.2 µM; in [10] it was greater than 84.5 µM; in experiment [11] it was greater than 36.6 µM.

As to `O=c1[nH][nH]c(=O)n1Cc1ccccc1Cn1c(=O)[nH][nH]c1=O`, the TGI in experiment [1], in [2], in experiment [3], in experiment [4], in [5] and in [6] was greater than 100 µM in each case. Moreover, the TGI in [7], in experiment [8], in experiment [9], in experiment [10] and in experiment [11] was greater than 100 µM each time.

Take `c1ccc(N=C2SC3=Nc4cccc5cccc(c45)N3C2=Nc2ccccc2)cc1`: the TGI in experiment [1], in [2], in experiment [12], in [4], in [5] and in [6] was greater than 100 µM throughout. The TGI in experiment [8], in experiment [9] and in experiment [10] was greater than 100 µM each time.

Regarding `Cc1nc(C(N)=S)sc1/C(CC(=O)C(=O)Nc1cccc2ccc(O)cc12)=N\NC(=O)c1ccncc1`, the TGI in experiment [1], in experiment [2], in experiment [3], in [4], in experiment [5] and in experiment [6] was greater than 100 µM throughout. The TGI in [7], in [9], in [10] and in experiment [11] was greater than 100 µM throughout.

For the compound `C=C(C1=CC(=O)C(C)(C)O1)[C@@H]1CC=C([C@@H]2CC[C@H]3[C@@]2(C)CC[C@H]2C(C)(C)C(=O)[C@H](O)C[C@]32C)[C@H](O)O1`, the TGI in [1] turned out to be 2.68 µM; in [2], 3.58 µM; in experiment [3], 22.2 µM; in experiment [5], 12.2 µM; in experiment [6] it was 28 µM; in experiment [7], 0.79 µM. Besides, the results for the TGI in experiment [8], in experiment [9] and in experiment [10] were 8.01 µM, 40.3 µM and 5.56 µM, respectively.

Regarding `C(/c1ccco1)=c1/nc(-c2ccccc2)n2c1nc1ccccc12`, the TGI is 9.43 µM in experiment [1]; 54.4 µM in [2]; 43 µM in [12]; 6.07 µM in experiment [3]; 46.8 µM in experiment [4]; greater than 100 µM in experiment [6]. Moreover, the TGI in experiment [7] is greater than 100 µM; in experiment [8] it was 68.3 µM; in [9], greater than 100 µM; in experiment [10] it was greater than 100 µM; in experiment [11], greater than 100 µM.

In the case of `CC(=O)O[C@H]1C(=O)[C@]2(C)[C@@H](OC(=O)OCCC(O)CO)C[C@H]3OC[C@@]3(OC(C)=O)[C@H]2[C@H](OC(=O)c2ccccc2)[C@]2(O)C[C@H](OC(=O)[C@H](O)[C@@H](NC(=O)c3ccccc3)c3ccccc3)C(C)=C1C2(C)C` (some centres undefined), the TGI is greater than 36.2 µM in experiment [1]; less than 0.01 µM in experiment [2]; greater than 100 µM in experiment [3]; 0.0462 µM in experiment [4]; greater than 36.6 µM in experiment [6]; 6.05 µM in experiment [7]. In addition, the TGI in [8] is greater than 100 µM; in [9], 0.576 µM; in [10] it was 46.8 µM; in experiment [11], greater than 46.4 µM.

For `CCCN=C1CCN(Cc2ccccc2)c2ccccc2N1`, the TGI in experiment [1] is 59.9 µM; in experiment [2], greater than 100 µM; in experiment [3], greater than 100 µM; in experiment [4], greater than 100 µM; in experiment [5] it was 29.3 µM; in experiment [6] it was greater than 100 µM. The TGI is greater than 100 µM in experiment [7]; 19.4 µM in experiment [8]; 96.1 µM in experiment [9]; 31.6 µM in experiment [10]; greater than 100 µM in experiment [11].

Regarding `COc1cc(/C=C2\S/C(=N/Nc3nc(-c4ccc(Br)cc4)cs3)NC2=O)cc(OC)c1OC`, the TGI in [1] worked out at 18.6 µM; in [2] it was 75.1 µM; in experiment [3], 63.8 µM; in [4], 10.3 µM; in [5], 99.1 µM; in experiment [6], 83.1 µM. Besides, the TGI in experiment [7] worked out at 26.5 µM; in [9] it was 11.7 µM; in experiment [10], 35.8 µM; in [11], 30.8 µM.

Take `CCOC(=O)Nn1c(C)nnc1-c1ccccc1`: the TGI in [1], in experiment [2], in experiment [12], in [3], in experiment [4] and in experiment [6] was greater than 100 µM in each case. Also, the TGI in experiment [7], in [8], in experiment [9], in experiment [10] and in experiment [11] was greater than 100 µM in each case.

Regarding `Cc1cn(C2CC(N(O)C(N)=O)C(CO)O2)c(=O)[nH]c1=O` (centres undefined), the TGI in [1], in experiment [2], in experiment [5], in experiment [6], in experiment [7] and in [8] was greater than 100 µM each time. In addition, the TGI in [10] and in [11] was greater than 100 µM in each case.

With `COc1ccc(/C=C2\CCC(C)C3=C2NC(=S)NC3c2ccc(OC)c(OC)c2)cc1OC` (centres undefined), the TGI in experiment [1] was greater than 31.6 µM; in [2] it was 12.1 µM; in experiment [12], 39.3 µM; in [3], greater than 31.6 µM; in experiment [5], greater than 31.6 µM; in experiment [6], greater than 31.6 µM. Moreover, the TGI in experiment [7] was greater than 31.6 µM; in [8], greater than 31.6 µM; in experiment [9], greater than 100 µM; in [10], greater than 31.6 µM; in experiment [11], greater than 31.6 µM.

`O=C(Cc1cccs1)N[C@@H]1C(=O)N2C(C(=O)OC(c3ccccc3)c3ccccc3)=C(CO)CS[C@H]12`: the TGI in experiment [1], in [2], in experiment [12], in experiment [3], in experiment [4] and in experiment [6] was greater than 100 µM throughout. Besides, the TGI in [7] is greater than 100 µM; in [8], greater than 100 µM; in experiment [9], 96.9 µM; in experiment [10], greater than 100 µM; in [11], greater than 100 µM.

Regarding `COc1ccc2c(=O)c(O)c(-c3ccc(OC)c(OC)c3)oc2c1`, the TGI in experiment [1], in [2], in experiment [12], in experiment [3], in [4] and in [5] was greater than 100 µM each time. For the same compound, the TGI in experiment [6], in experiment [8] and in experiment [11] was greater than 100 µM throughout.

Turning to `CC[C@@]1(O)C(=O)OCc2c1cc1n(c2=O)Cc2c-1nc1ccccc1c2/C=N\NC(=O)CN`, the TGI in experiment [1] was greater than 100 µM; in experiment [2] it was greater than 100 µM; in experiment [12], 0.464 µM; in [3], greater than 100 µM; in experiment [5], greater than 100 µM; in experiment [6], greater than 100 µM. Also, the TGI in experiment [7] is 5.7 µM; in experiment [8], greater than 100 µM; in experiment [9] it was 3.54 µM; in experiment [10], greater than 100 µM; in experiment [11], greater than 100 µM.

Consider `Cc1ccsc1/C=N/Nc1ncccn1`, for which the TGI in [1], in experiment [2], in experiment [3], in experiment [4], in experiment [5] and in experiment [6] was greater than 100 µM throughout. For the same compound, the TGI in [7], in experiment [8], in experiment [9], in experiment [10] and in [11] was greater than 100 µM in each case.

`CCc1ccc(CCN2CCCCC2)nc1`: the TGI in experiment [1], in experiment [2], in [3], in experiment [4], in experiment [5] and in experiment [6] was greater than 100 µM in each case. Besides, the TGI in [7], in experiment [8], in experiment [9], in experiment [10] and in experiment [11] was greater than 100 µM throughout.

Consider `COC(=O)c1cc2c(n1S(=O)(=O)c1ccc(C)cc1)C(=O)C(=O)c1[nH]cc(C(=O)OCc3ccccc3)c1-2`, for which the TGI was found to be 1.13 µM in experiment [1]; 0.802 µM in experiment [12]; 0.665 µM in experiment [3]; 1.05 µM in experiment [4]; 0.226 µM in experiment [5]; 1.02 µM in experiment [6]. Moreover, the TGI in experiment [7] is 1.07 µM; in [8] it was greater than 100 µM; in experiment [9], 0.462 µM; in experiment [10], 0.358 µM; in [11] it was 0.174 µM.

On to `COC(=O)C1CCC(=O)N1C(c1ccccc1)c1ccc(OC)c(OC)c1` (centres undefined), for which the TGI in [1], in [2], in experiment [12], in experiment [3], in experiment [5] and in experiment [6] was greater than 100 µM throughout. Further, the TGI in experiment [7], in [8], in experiment [9], in experiment [10] and in experiment [11] was greater than 100 µM in each case.

For `COc1ccc(C2c3cc4c(cc3OC(NNS(=O)(=O)c3ccc(C)cc3)C2C)OCO4)cc1` (centres undefined), the TGI was greater than 100 µM in [1]; greater than 100 µM in experiment [2]; 69.7 µM in experiment [12]; greater than 100 µM in [4]; greater than 100 µM in experiment [5]; greater than 100 µM in experiment [6]. Moreover, the TGI in [7], in experiment [8], in experiment [9], in experiment [10] and in experiment [11] was greater than 100 µM each time.

Consider `CC(C)C1/C(=N/O)CC(c2ccccc2)N(N=O)C1c1ccccc1` (centres undefined), for which the TGI in experiment [1] is greater than 100 µM; in [2], greater than 100 µM; in experiment [3], 73.5 µM; in [4] it was greater than 100 µM; in [5], greater than 100 µM; in experiment [7], greater than 100 µM. The TGI was greater than 100 µM in [8], greater than 100 µM in experiment [9], 73.6 µM in [10] and greater than 100 µM in experiment [11].

With `COC(=O)[C@H](Cc1c[nH]c2ccccc12)NP(=O)(O)OCC1C=CC(n2cc(C)c(=O)[nH]c2=O)O1` (some centres undefined), the TGI in [1], in experiment [2], in experiment [3], in experiment [4], in experiment [5] and in experiment [7] was greater than 100 µM each time. For the same compound, the TGI in experiment [8], in [9], in experiment [10] and in experiment [11] was greater than 100 µM in each case.

In the case of `Cc1cc(N(CCC#N)CCC#N)ccc1/C(N=Nc1ccc(Cl)cc1)=N\NC(=O)c1ccccc1`, the TGI in experiment [1] is greater than 100 µM; in experiment [2], 74.2 µM; in [12] it was greater than 100 µM; in experiment [3] it was greater than 100 µM; in experiment [4] it was greater than 100 µM; in experiment [6], greater than 100 µM. In addition, the TGI in experiment [7], in experiment [8], in experiment [9] and in experiment [10] was greater than 100 µM throughout.

Take `O=C(O)CN(CC(=O)O)C1CCCCC1N(CC(=O)O)CC(=O)NCCN=C=S` (centres undefined): the TGI in [1], in experiment [2], in experiment [3], in experiment [4], in experiment [5] and in [6] was greater than 100 µM throughout. Further, the TGI in experiment [8], in experiment [9], in [10] and in experiment [11] was greater than 100 µM throughout.

For `FC(F)(F)c1cc(Cl)cnc1N/N=C(/c1ccccc1)c1ccccn1`, the TGI in [1] is 89.7 µM; in experiment [2], greater than 100 µM; in experiment [3] it was 4.97 µM; in experiment [4] it was 4.85 µM; in experiment [5] it was greater than 100 µM; in [6], 33.4 µM. For the same compound, the TGI is 16.4 µM in experiment [7]; 49.9 µM in experiment [8]; 8.03 µM in experiment [9]; 20.1 µM in experiment [10]; greater than 100 µM in experiment [11].
